Assay results published in patent publication US10105378B2, “Enrichment methods for preparing tannic acid compositions” (SyneuRx International (Taiwan) Corp., priority 2016, dated 2018).

Experiments:
[1] = target: D-amino acid oxidase (DAAO) (UniProt P14920)
Experimental: The activity of DAAO was determined in vitro by measuring the inhibition of the catabolism of known substrate, D-proline. The cofactor FAD (40 ? M) was added to the DAAO stock solution first. For the assay, potential inhibitors of tannic acid(s) were mixed with reaction mixture containing phosphate buffered saline (137 mM NaCl, 3 mM KCl, 10 mM Na2HPO4, 2 mM NaH2PO4, pH 7.4), horseradish peroxidase (5 U/ml), o-phenylendiamine (OPD, 0.03%), and 0.6 μg human-(or porcine-) DAAO, and incubated for about 5 min. After the pre-incubation period, 40 mM D-proline were added as substrate and the reaction continued for 10 min. OPD was oxidized to form 2,3-diaminophenazine (DAP) by horseradish peroxidase. The absorbance of DAP was measured at 453 nm by a spectrophotometry. Assay was done in serial dilutions of the inhibitors to generate IC50 and analyzed by Prism (Graphpad Software). In the analysis, the spectrophotometry readings were fit to a standard equation to determine the concentration of 50% inhibition (IC50). All enzymatic assays were conducted at room temperature in 96-well plate format.
The DAAO inhibitory activities of subgroups of tannic acids (having a particular number of galloyl moieties) were determined as follows.

MK-801 treated mice [2] = experiment: Prepulse inhibition in MK-801 treated mice (Example 9); format: in vivo, C57BL/6J male mice; details: MK-801 0.3 mg/kg i.p. alone
Experimental: Each mouse in Groups 2-4 received an acute administration of 0.3 mg/kg MK-801 (Sigma-Aldrich, USA) dissolved in normal saline by i.p. injection 20 minutes prior to the prepulse inhibitin test. Each mouse in Groups 3-4 received an acute oral administration of 50 or 200 mg/kg Enrichment #10 tannic acids dissolved in ddH2O by p.o. 20 minutes prior to the MK-801 administration.
Prepulse inhibition was used as an index of sensorimotor gating function using SR-LAB startle apparatus (San Diego Instruments, San Diego, Calif., USA). Under 65 dB background noise, each session was composed of 5 minutes accumulation period followed by 64 trials in four blocks. The pulse alone (PA) trial was a 40 ms, 120 dB white noise burst. In the prepulse (pp)+pulse trials, a 20 ms white noise prepulse stimuli of 71 dB (pp6), 75 dB (pp10), and 83 dB (pp18) were presented 100 ms before a 40 ms 120 dB pulse. The non-stimulus (NS) trials presented the background noise only. The initial and the last blocks were composed of six PA trials, respectively. Two middle blocks consisted of PA, pp+pulse, and NS trials. […] The percentage of prepulse inhibition was evaluated by the following formula: % PPI=100×[(PA score)−(pp−P score)]/(PA score), where the PA score was the average of the PA value in the middle blocks

MK-801 treated mice [3] = experiment: Open field locomotion in MK-801 treated mice (Example 9); format: in vivo, C57BL/6J male mice; details: MK-801 0.2 mg/kg i.p. alone
Experimental: Each mouse in Groups 2-5 received an acute administration of 0.2 mg/kg MK-801 (Sigma-Aldrich, USA) dissolved in normal saline by i.p. injection 20 minutes prior to the locomotion activity test. Each mouse in Groups 3-6 received an acute oral administration of 50 mg/kg tannic acids dissolved in ddH2O by p.o. 20 minutes prior to the MK-801 administration. Tannic acid purchased from Merch Millipore (Merck TA) and from Wufeng Chicheng Biotech (CCBiotech TA), and tannic acid from Enrichment method 10 (Enrichment #10) at 50 mg/kg were used in this study.
The open field task is a common measurement of novelty induced exploratory behavior and general activity in both mice and rats. In this study, the mice were placed in a PLEXIGLAS® cage (37.5 cm×21.5 cm×18 cm) under 50-65 lux light intensity. Their spontaneous locomotor activities were measured for 30 minutes using the SMART video tracking system (Panlab, Harvard Apparatus). The travel distance of each mouse was measured as an index of locomotion activity.

MK-801 treated mice [4] = experiment: Prepulse inhibition in MK-801 treated mice (Examples 3, 4); format: in vivo, C57BL/6J male mice; details: MK-801 0.2 mg/kg i.p. alone
Experimental: (§1) Each mouse in Groups 2-6 received an acute administration of MK-801 (Sigma-Aldrich, USA) dissolved in normal saline, 0.1 mg/kg, i.p.) 20 minutes prior to the behavioral tests. Each mouse in Groups 3-6 received an acute administration of tannic acids (Sigma-Aldrich, USA; dissolved in PBS, 10, 15, 20 or 30 mg/kg, i.p.) 20 minutes prior to the MK-801 administration.
Prepulse inhibition was used as an index of sensorimotor gating function using SR-LAB startle apparatus (San Diego Instruments, San Diego, Calif., USA). Under 72 dB background noise, each session was composed of 5 minutes accumulation period followed by 64 trials in four blocks. The pulse alone (PA) trial was a 40 ms, 120 dB white noise burst. In the prepulse (pp)+pulse trials, a 20 ms white noise prepulse stimuli of 78 dB (pp6), 82 dB (pp10), and 90 dB (pp18) were presented 100 ms before a 40 ms 120 dB pulse. The non-stimulus (NS) trials presented the background noise only. The initial and the last blocks were composed of six PA trials, respectively. Two middle blocks consisted of PA, pp+pulse, and NS trials. […] The percentage of prepulse inhibition was evaluated by the following formula: % PPI=100×[(PA score)−(pp−P score)]/(PA score), where the PA score was the average of the PA value in the middle blocks. […]

MK-801 treated mice [5] = experiment: Sucrose preference (anhedonia) in MK-801 treated mice; format: in vivo, C57BL/6J male mice; details: MK-801 0.2 mg/kg i.p. alone
Experimental: (§2) Each mouse in Groups 2-5 received an acute administration of MK-801 (Sigma-Aldrich, USA) dissolved in normal saline, 0.1 mg/kg for open field and Barnes maze tasks, and 0.2 mg/kg for prepulse inhibition and sucrose preference tasks by i.p. injection) 20 minutes prior to the behavioral tests. Each mouse in Groups 3-6 received an acute oral administration of tannic acids (Merck Millipore, Germany; dissolved in PBS, 10, 30, or 100 mg/kg, p.o.) 20 minutes prior to the MK-801 administration.
Sucrose preference test has been commonly examined in mouse models of several mental illnesses, including, but not limited to, depression, major depression disorder, anhedonia, negative symptoms of schizophrenia, chronic mild and unpredictable stress (see Anderson et al., 2006; Carvalho et al., 2013; Briones et al., 2011; Der-Avakian and Markou, 2012; Tye et al., 2013; Edwards and Koob, 2012; Brigman et al., 2010; Koo and Duman, 2007; Nestler and Hyman, 2010; Overstreet, 2012; Papp et al., 1991; Santiago et al., 2010; Skalisz et al., 2002; Szczypka et al., 2001; Taylor et al., 2010; Vardigan et al., 2010; Willner et al., 1987; You et al., 2011).

MK-801 treated mice [6] = experiment: Open field locomotion in MK-801 treated mice (Examples 3, 4); format: in vivo, C57BL/6J male mice; details: MK-801 0.1 mg/kg i.p. alone
Experimental: as §1
All mice in this study were tested with open field task and prepulse inhibition task with at least 1-week interval between two tasks. An additional cohort of mice was used to test the effect of different sources of tannic acid on prepulse inhibition.
as §2
In this test, tannic acids were administered orally 20 minutes before the MK-801 (0.1 mg/kg) injection.

Row | SMILES | IC50 ([1]; read-out: IC50 (μM), potency of individual tannic acids, Table 4) [µM] | Relative DAAO activity (%) ([1]; samples at 300 nM) | prepulse inhibition vs control group (MK-801 treated mice [2]) | locomotion activity vs control group (MK-801 treated mice [3]) | prepulse inhibition vs control group (MK-801 treated mice [4]) | preference toward the sucrose solution (2%) (MK-801 treated mice [5]) | locomotion activity vs control group (MK-801 treated mice [6]; Example 3) | locomotion (MK-801 treated mice [6]; Example 4)
1 | O=C(OC[C@H]1OC(OC(=O)c2cc(O)c(O)c(OC(=O)c3cc(O)c(O)c(O)c3)c2)[C@H](OC(=O)c2cc(O)c(O)c(OC(=O)c3cc(O)c(O)c(O)c3)c2)[C@@H](OC(=O)c2cc(O)c(O)c(OC(=O)c3cc(O)c(O)c(O)c3)c2)[C@@H]1OC(=O)c1cc(O)c(O)c(OC(=O)c2cc(O)c(O)c(O)c2)c1)c1cc(O)c(O)c(OC(=O)c2cc(O)c(O)c(O)c2)c1 (some centres unmarked) [10G] | 0.215 | 19.25 | – | – | – | – | – | –
2 | C[C@]12N[C@H](Cc3ccccc31)c1ccccc12 [MK-801] | – | – | induced robust prepulse inhibition deficits in all prepulse intensities | hyper-locomotion activity | induced robust prepulse inhibition deficits | did not show the preference toward the sucrose solution | hyper-locomotion activity | induced hyper-locomotion
